According to patent US9547017B2, “Genetically encoded fluorescent sensors for detecting intracellular signalling through diacylglycerol pathways” (MONTANA MOLECULAR LLC, priority 2012, dated 2017):
Entries after “also recorded” stand apart in the source; their conditions may differ.

Tests used:
P2Y11 receptor [1] = target: T1, P2Y11 receptor (Homo sapiens, UniProt Q96G91); assay: Multiplex DAG2 and R-GECO1 sensors with P2Y11 receptor in HEK 293 cells; type: cell-based; design: expressed in transfected cells; host or cells: HEK 293; settings: HEK cells expressing human P2Y11 receptor
T1 sequence (Q96G91 1-374): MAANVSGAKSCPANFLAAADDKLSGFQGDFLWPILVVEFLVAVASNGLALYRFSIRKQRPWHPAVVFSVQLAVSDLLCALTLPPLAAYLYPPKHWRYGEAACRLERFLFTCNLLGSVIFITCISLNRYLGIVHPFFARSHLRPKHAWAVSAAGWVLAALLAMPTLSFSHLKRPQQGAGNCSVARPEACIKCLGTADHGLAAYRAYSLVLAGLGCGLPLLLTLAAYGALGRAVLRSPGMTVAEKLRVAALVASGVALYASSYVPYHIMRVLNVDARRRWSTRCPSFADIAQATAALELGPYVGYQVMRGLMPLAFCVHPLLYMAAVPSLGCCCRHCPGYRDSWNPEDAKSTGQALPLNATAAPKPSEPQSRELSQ
Source text: To explore whether multiplex sensors could be used to detect this distinct signaling pattern, we expressed the human P2Y11 receptor with combinations of the Downward DAG2, or Upward DAG2, and R-GECO1 sensors. […] (FIG. 8).

P2Y11 receptor [2] = target: T1, P2Y11 receptor; settings: reported in reference (29), different cell line; cited from earlier work
DAG sensors [3] = assay: Effect of DMSO on the DAG assay; type: cell-based
Experimental: Many compound libraries are carried by DMSO, a vehicle that can cause artifacts in live cell assays. […] At moderate final concentrations of 0.1 to 1%, the DMSO produced no effect, while at higher concentrations artifactual, DMSO triggered changes in fluorescence did occur. The effect of DMSO on the DAG sensors was negligible at final concentrations of 0.1 to 1%, but detectable at 2% or greater.

DAG sensors [4] = assay: Direct activation of DAG sensors in cells by phorbol ester PDBu; type: cell-based
Source text: In transient expression it is possible to produce high concentrations of the protein-based sensor than the analyte itself [Falkenburger et al].
(§1) To test for the independence of the signals being detected by these sensors, we increased intracellular Ca2+ by applying ionomycin.

intracellular Ca2+ = assay: Independence test: ionomycin raises intracellular Ca2+ in cells expressing Ca2+, DAG or PIP2 sensors; type: cell-based
Source text: as §1

DAG = DAG sensor fluorescence change on carbachol stimulation of co-expressed M1 receptor in HEK 293 cells (time-lapse imaging); type: cell-based, human
Source text: These changes were easily detected in time-lapse imaging and occurred in all transfected cells with remarkably little cell to cell variability. […] The signals then returned to baseline quite slowly (t-170 seconds, FIG. 3C).

PIP2 and DAG = assay: Co-expressed PIP2r and DAG sensors, M1 receptor activation (PLC substrate and product); type: cell-based; settings: PIP2r co-expressed with DAG sensor, FIG. 7A
Source text: Stimulation of phospholipase C cleaves PIP2 and produces DAG. Co-expression of the Upward DAG2 or Downward DAG2 sensor with the PIP2r sensor provides a new view of both the substrate and product of phopholipase C (FIG. 7). To our knowledge, this is the first time that genetically encoded biosensors have been used to simultaneously measure substrate and product. M1 receptor activation produced a remarkable change in the intensity and distribution of both sensors. […] The onset of the response of the Upward and Downward DAG2 sensors, as well as PIP2r, is kinetically quite similar. However the return to baseline is considerably slower for the Downward DAG2 and PIP2r sensors (FIG. 7B).

PIP2 = PIP2 sensor response to M1 receptor activation; type: cell-based; settings: FIGS. 6A and B
Source text: Phospholipase C hydrolyses PIP2 to produce both DAG and IP3. To independently check the fidelity and kinetics of the DAG sensors, we created a red fluorescent PIP2 sensor by fusing the pleckstrin homology (PH) domain of PLCδ to two different components of the recently described dimerization-dependent red fluorescent proteins (26). Previous work has shown that the translocation of the PLCδ PH domain can be used to measure PIP2 turnover (27), and if the PH domains carry FRET pairs of fluorescent proteins a small change in FRET occurs when PLC is activated (28). […] Because this sensor relies on the fluorescence of one protein, rather than a FRET pair, it could be multiplexed with the green fluorescent DAG sensors for simultaneous measurement of both PIP2 and DAG in living cells. The amino acid sequences of this pair of constructs forming a novel PIP2 sensor are shown as SEQ ID NO:70 and SEQ ID NO:71, and the nucleotide sequences encoding them are shown as SEQ ID NO:72 and SEQ ID NO:73.

[5] = carbachol stimulation of the M1 receptor

Nc1ncnc2c1ncn2[C@@H]1O[C@H](COP(=O)(O)OP(=O)(O)OP(=O)(O)O)[C@@H](O)[C@H]1O [ATP]
Ca2+ response (R-GECO1) (P2Y11 receptor [1]): triggered a Ca2+ response; also recorded: transient increase in Ca2+
PLC pathway signaling (Upward or Downward DAG2 sensors) (P2Y11 receptor [1]): triggers signaling via the phospholipase C pathway; also recorded: activating the PLC pathway
signaling at the P2Y11 receptor as reported (P2Y11 receptor [2]): produces inositol phosphate turnover and transient Ca2+ signaling

C[S+](C)[O-] [DMSO]
effect of DMSO on the DAG sensors (DAG sensors [3]; 2% or greater): detectable
effect of DMSO on the DAG sensors (DAG sensors [3]; final concentrations of 0.1 to 1%): negligible; also recorded: no effect

CCCC(=O)O[C@@H]1[C@@H](C)[C@@]2(O)[C@@H](C=C(CO)C[C@]3(O)C(=O)C(C)=C[C@@H]23)[C@@H]2C(C)(C)[C@]12OC(=O)CCC [PDBu]
additional change in sensor fluorescence on PDBu applied after carbachol (DAG sensors [4]; cells first stimulated with carbachol, then PDBu): additional increase in fluorescence; also recorded: additional doubling of the change in intensity
activation of DAG sensor by PDBu added after ionomycin (DAG sensors [4]; subsequent addition after ionomycin, FIG. 4C): activates Downward DAG; also recorded: subsequently activated

O=c1ccn([C@@H]2O[C@H](COP(=O)(O)OP(=O)(O)OP(=O)(O)O)[C@@H](O)[C@H]2O)c(=O)[nH]1 [UTP]
Ca2+ response (R-GECO1) (P2Y11 receptor [1]): triggered a Ca2+ response; also recorded: transient increase in Ca2+
PLC pathway signaling (Upward or Downward DAG2 sensors) (P2Y11 receptor [1]): causing a Ca2+ transient in a very different way; also recorded: producing a Ca2+ transient through a different pathway
signaling at the P2Y11 receptor as reported (P2Y11 receptor [2]): only triggers a Ca2+ response

C[C@H](CCC(=O)O)C[C@H](C)C[C@H](C)C(=O)/C=C(\O)[C@H](C)C[C@H](C)C/C=C/[C@@H](C)[C@@H](O)[C@@H](C)[C@@H](O)C[C@@H]1CC[C@@](C)([C@H]2CC[C@@](C)([C@@H](C)O)O2)O1 [ionomycin]
effect of raising intracellular Ca2+ on DAG and PIP2 levels (intracellular Ca2+; ionomycin added before PdBU or M1 receptor activation, FIGS. 6C and D): no apparent effect on the DAG and PIP2 levels
R-GECO (Ca2+ sensor) response (intracellular Ca2+; ionomycin applied, FIG. 4C): produces a change in R-GECO; also recorded: robust R-GECO1 response
change in DAG sensor (intracellular Ca2+; ionomycin applied, FIG. 4C): not Downward DAG; also recorded: no detectable change in the DAG sensor

Downward DAG: DAG sensor: cpEGFP at K152 of PKC delta truncated at L122; fluorescence decreases upon binding to DAG
loss (decrease) in fluorescence (DAG; [5]): 40%
time over which the fluorescence loss occurs (DAG; mean of 4 cells): 15 s

Upward DAG: DAG sensor: cpEGFP at N158 of PKC delta truncated at L122; fluorescence increases upon binding to DAG
change in sensor fluorescence on M1 receptor activation (PIP2 and DAG): green fluorescence increases
fluorescence increase (DAG; [5]): 45%

B1: PIP2 sensor: red fluorescent PIP2 sensor: PH domain of PLCδ fused to each member of the ddRFP pair (protein)
chain 1: MVSKSEEVIKEFMRFKVRLEGSMNGHEFEIEGEGEGRPYEGTQTAKLKVTKGGPLPFAWDILSPQIMYGSKAYVKHPADVPDYMKLSFPEGFKWERVMHFEDGGLVTVTQDTSLQDGTLIYKVKMRGTNFPPDGPVMQKKTLGWDYATERLYPEDGVLKGELLGRLKLKDGGLNLVEFKTIYMAKKPVQLPGYYFVDTKLGITSHNEDYTIVEQYERSEGRHHLGMDELYKRSRAQASNSAVDGTAGPGSMDSGRDFLTLHGLQDDEDLQALLKGSQLLKVKSSSWRRERFYKLQEDCKTIWQESRKVMRTPESQLFSIEDIQEVRMGHRTEGLEKFARDVPEDRCFSIVFKDQRNTLDLIAPSPADAQHWVLGLHKIIHHSGSMDQRQKLQHWIHSCLRKADKNKDNKMSFKELQNFLKELNIQ
chain 2: MVSKGEETIKEFMRFKVRMEGSMNGHEFEIEGEGEGRPYEGTQTAKLKVTKGGPLPFAWDILSPQFMYGSEAYVRHPADIPDYKKLPFPEGFKWERVMNFEDGGLVTVTQDSSLQDGTLICKVKMRGTNFPPDGPVMQKKTMGWEASTEMLYPEDGVLKGHSYQALKLKDGGHYLVEFETIYMAKKPVQLPGDYCVDTKLDITSHNEDYTIVEQYGRSEGRHRLGMDERYKRSRAQASNSAVDGTAGPGSMDSGRDFLTLHGLQDDEDLQALLKGSQLLKVKSSSWRRERFYKLQEDCKTIWQESRKVMRTPESQLFSIEDIQEVRMGHRTEGLEKFARDVPEDRCFSIVFKDQRNTLDLIAPSPADAQHWVLGLHKIIHHSGSMDQRQKLQHWIHSCLRKADKNKDNKMSFKELQNFLKELNIQ
modifications: Synthetic sequence, a.a. sequence of PIP2 sensor fragment [PIP2-A1]; Synthetic sequence, a.a. sequence of PIP2 sensor fragment [PIP2-B1]
notes: red fluorescent PIP2 sensor: PH domain of PLCδ fused to each member of the ddRFP pair
change in sensor fluorescence on M1 receptor activation (PIP2 and DAG): red fluorescence decreases
red fluorescent signal at the membrane with M1 receptor activation (PIP2): rapidly disappeared
